Patent publication EP1984353B1, “AURORA KINASE MODULATORS AND METHOD OF USE” (Amgen, Inc, priority 2006, dated 2007)
Read-outs that look alike come from different tables or passages of the source.

Key:
AuroraB = molecular target: T1, AuroraB (Homo sapiens, UniProt Q96GD4); experiment: AuroraB Homogeneous Time Resolved Fluorescent (HTRF) kinase assay; format: biochemical; conditions: average, read-out: AurB_ _IC50_IP (Avg)
T1 construct: 20 µL of AuroraB FL His; His
Description: AuroraB-Homogeneous Time Resolved Fluorescent (HTRF) Kinase Assay:
The AuroraB HTRF assay begins with AuroraB in the presence of ATP phosphorylating the biotinylated peptide Histone H3. The reaction incubates for about 90 min. the reaction is quentched by addition of detection reagents, which stop the reaction by diluting out the enzyme and chelating the metals due to the presence of EDTA. After addition, the assay is incubated for about 60 min to allow detection reagents to equilibrate.
The AuroraB HTRF assay comprises 1 µL of compound in 100% DMSO, 20 µL of ATP and biotinylated Histone H3, and 20 µL of AuroraB FL His for a final volume of 41 µL. The final concentration of Histone H3 is 0.1 µM. The final concentration of ATP is 23 µM (Km(app) = 23 µM+/-2.6) and the final concentration of AuroraB is 400 pM. Buffer conditions are as follows: 50mM HEPES pH 7.5, 5mM NaCl, 0.5mM MgCl, 0.5mM MnCl, 2mM DTT, 0.05% BSA.
(§1) The assay is quenched and stopped with 160 µL of detection reagent. Detection reagents are as follows: Buffer made of 50mM Tris, pH 7.5, 100mM NaCl, 3mM EDTA, 0.05% BSA, 0.1% Tween20. Added to this buffer prior to reading is Steptavidin allophycocyanin (SA-APC) at a final conc in the assay of 0.001 mg/mL, and europilated anti-phosphoHistoneH3 Ab (Eu-anti-HisH3) at a final conc of 0.064 nM.
The assay plate is read in either a Discovery or a RubyStar. The eu-anti-HisH3 is excited at 320 nm and emits at 615 nm to excite the SA-APC which in turn emits at 655 nm. The ratio of SA-APC at 655 nm (excited due to close proximity to the Eu-anti-HisH3 because of phosphorylation of the peptide) to free Eu-anti-HisH3 at 615 nm will give substrate phosphorylation.

AuroraA-TPX2 = molecular target: T2, AuroraA-TPX2 (Homo sapiens, UniProt O14965); experiment: AuroraA-TPX2 Homogeneous Time Resolved Fluorescent (HTRF) kinase assay; format: biochemical; conditions: average, read-out: AurA/TP X2_ IC50_IP (Avg)
T2 construct: 20 µL of AuroraA-TPX2 KD GST; GST
T2 sequence (O14965 133-383 limits assumed): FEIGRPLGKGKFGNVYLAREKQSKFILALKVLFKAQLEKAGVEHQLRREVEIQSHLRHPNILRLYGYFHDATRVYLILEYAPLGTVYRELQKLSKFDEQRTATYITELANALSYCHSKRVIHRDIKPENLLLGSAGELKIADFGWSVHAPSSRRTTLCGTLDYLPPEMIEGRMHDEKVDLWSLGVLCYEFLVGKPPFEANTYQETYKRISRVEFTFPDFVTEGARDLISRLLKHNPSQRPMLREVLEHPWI
T2 sequence (Q9ULW0 1-43 partner limits assumed): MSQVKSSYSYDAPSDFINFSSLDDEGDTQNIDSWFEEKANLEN
Description: AuroraA-TPX2-Homogeneous Time Resolved Fluorescent (HTRF) Kinase Assay:
The Aurora-A HTRF assay begins with Aurora-A in the presence of ATP phosphorylating the biotinylated peptide PLK. The reaction incubates for about 120 min. Detection reagents are added to quench the reaction. These agents stop the reaction by diluting out the enzyme and chelating the metals due to the presence of EDTA. After addition, the assay is incubated overnight to allow the detection reagents to equilibrate.
The final concentration of PLK is about 1 µM. […] Buffer conditions are as follows: 60mM HEPES pH 7.5, 25mM NaCl, 10mM MgCl, 2mM DTT, 0.05% BSA.
as §1, with “µL,” for “µL”, “0.0005” for “0.001”, “anti-phosphoPLK” for “anti-phosphoHistoneH3”, “(Eu-anti-PLK)” for “(Eu-anti-HisH3)”, “0.02” for “0.064”
The assay plate is read in either a Discovery or a RubyStar. The eu-anti-PLK is excited at 320 nm and emits at 615 nm to excite the SA-APC which in turn emits at 655 nm.

[1] = given as numbers, unit inferred

T1 sequence (Q96GD4 whole entry): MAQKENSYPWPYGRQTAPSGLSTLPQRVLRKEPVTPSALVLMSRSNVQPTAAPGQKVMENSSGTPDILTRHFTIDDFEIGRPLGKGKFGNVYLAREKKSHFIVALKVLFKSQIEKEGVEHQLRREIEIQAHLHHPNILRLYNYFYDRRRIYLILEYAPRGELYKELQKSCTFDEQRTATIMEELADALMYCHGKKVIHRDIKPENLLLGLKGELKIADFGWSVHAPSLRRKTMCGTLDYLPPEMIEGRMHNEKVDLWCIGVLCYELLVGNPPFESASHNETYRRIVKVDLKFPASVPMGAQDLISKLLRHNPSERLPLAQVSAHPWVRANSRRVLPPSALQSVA

Row | Compound | IC50 (AuroraB; [1]) [µM] | IC50 (AuroraA-TPX2; [1]) [µM] | IC50 (AuroraB; given as class symbols) [µM] | IC50 (AuroraA-TPX2; given as class symbols) [µM]
1 | Cc1cccc(-c2nnc(Nc3ccc(Oc4ncccc4-c4ccnc(NCCCN5CCNCC5)n4)cc3)c3ccccc23)n1 [compound 277, 4-(6-methyl-2-pyridinyl)-N-(4-((3-(2-((3-(1-piperazinyl)propyl)amino)-4-pyrimidinyl)-2-pyridinyl)oxy)phenyl)-1-phthalazinamine] | 0.0027 | 0.126 |  | 
2 | Nc1nccc(-c2cccnc2Oc2ccc(Nc3nnc(-c4ccccc4CO)c4ccccc34)cc2)n1 [compound 384, (2-(4-((4-((3-(2-amino-4-pyrimidinyl)-2-pyridinyl)oxy)phenyl)amino)-1-phthalazinyl)phenyl)methanol] |  |  | ≤ 0.1 | ≤ 0.1
3 | Cc1csc(-c2nnc(Nc3ccc(Oc4ncccc4-c4ccnc5c4CCCN5)cc3)c3ccccc23)n1 [compound 284, 4-(4-methyl-1,3-thiazol-2-yl)-N-(4-((3-(5,6,7,8-tetrahydro-1,8-naphthyridin-4-yl)-2-pyridinyl)oxy)phenyl)-1-phthalazinamine] | 0.191 | 0.167 |  | 
4 | CN(C)C1CCN(CCCNc2nccc(-c3cccnc3Oc3ccc(Nc4nnc(-c5ccccc5)c5ccccc45)cc3)n2)C1 (stereo not drawn) [compound 324, N-(4-((3-(2-((3-(3-(dimethylamino)-1-pyrrolidinyl)propyl)amino)-4-pyrimidinyl)-2-pyridinyl)oxy)phenyl)-4-phenyl-1-phthalazinamine] |  |  | ≤ 0.1 | ≤ 0.1
5 | CCc1cc(-c2ccccc2)nnc1Nc1ccc(Oc2ncccc2-c2ccnc(NCCCN3CCN(C)CC3)n2)nc1 [compound 449, 4-ethyl-N-(6-((3-(2-((3-(4-methyl-1-piperazinyl)propyl)amino)-4-pyrimidinyl)-2-pyridinyl)oxy)-3-pyridinyl)-6-phenyl-3-pyridazinamine] |  |  | ≤ 0.1 | ≤ 0.1
6 | Nc1nccc(-c2ccccc2Oc2ccc(Nc3nnc(-c4ccccc4)c4ccccc34)cc2)n1 [compound 254, N-(4-((2-(2-amino-4-pyrimidinyl)phenyl)oxy)phenyl)-4-phenyl-1-phthalazinamine] |  |  | ≤ 0.1 | ≤ 0.1
7 | Nc1nccc(-c2cccnc2Oc2ccc(Nc3nnc(-c4cccc(OC(F)(F)F)c4)c4ccccc34)cn2)n1 [compound 378, N-(6-((3-(2-amino-4-pyrimidinyl)-2-pyridinyl)oxy)-3-pyridinyl)-4-(3-((trifluoromethyl)oxy)phenyl)-1-phthalazinamine] |  |  | ≤ 0.1 | ≤ 0.1
8 | COc1cccc(-c2nnc(Nc3ccc(Oc4ncccc4-c4ccnc(N)n4)cc3)c3ccccc23)n1 [compound 292, N-(4-((3-(2-amino-4-pyrimidinyl)-2-pyridinyl)oxy)phenyl)-4-(6-(methyloxy)-2-pyridinyl)-1-phthalazinamine] |  |  | ≤ 0.1 | ≤ 0.1
9 | Cc1cc(-c2cccc(CO)c2)nnc1Nc1ccc(Oc2ncccc2-c2ccnc(N)n2)cc1 [compound 370, (3-(6-((4-((3-(2-amino-4-pyrimidinyl)-2-pyridinyl)oxy)phenyl)amino)-5-methyl-3-pyridazinyl)phenyl)methanol] |  |  | ≤ 0.1 | ≤ 0.1
10 | CNc1cc(-c2cccnc2Nc2ccc(Nc3nnc(-c4ccccc4)c4ccccc34)cc2)ncn1 [compound 255, N-(3-(6-(methylamino)-4-pyrimidinyl)-2-pyridinyl)-N'-(4-phenyl-1-phthalazinyl)-1,4-benzenediamine] |  |  | ≤ 0.1 | 0.1 to 0.5
11 | Nc1nccc(-c2cccnc2Oc2ccc(Nc3nnc(-c4cccc(COP(=O)(O)O)c4)c4ccccc34)cc2)n1 [compound 351, (3-(4-((4-((3-(2-amino-4-pyrimidinyl)-2-pyrldinyl)oxy)phenyl)amino)-1-phthalazinyl)pbenyl)methyl dihydrogen phosphate] |  |  | ≤ 0.1 | 0.1 to 0.5
12 | ONc1nccc(-c2cccnc2Oc2ccc(Nc3nnc(-c4ccccc4)c4ccccc34)cc2)n1 [compound 310, N-(4-((3-(2-(hydroxyamino)-4-pyrimidinyl)-2-pyridinyl)oxy)phenyl)-4-phenyl-1-phthalazinamine] |  |  | ≤ 0.1 | ≤ 0.1
